≈ marks a conversion by molar mass, not a printed value.

These results are taken from patent publication US20050158271A1, “Pharmaceutical applications of hydrotropic polymer micelles” (priority 2000, published 2005).

The test system of one data set is HT-29. Nature of the data set: Antitumor cytotoxicity (ED50), HT-29. It counts as cell-based. The note with it: HT-29 tumor cell line. Here is the method:
(§1) The antitumor cytotoxicities, as measured by ED50, of polymeric micelles on various cell lines were measured as shown in Table 7. […] Free paclitaxel and doxorubicin in ethanol were used as positive controls. The ED50 values of hydrotropic micelles are much lower than PLA-PEG and PPA-PEG micelles.

A further data set relates to MDA231. The experiment in a line: Antitumor cytotoxicity (ED50), MDA231. It counts as cell-based. The conditions noted are these: MDA231 tumor cell line. The method, then: as §1
For the next data set, the system named is MCF-7. Nature of the data set: Antitumor cytotoxicity (ED50), MCF-7. The conditions noted are these: MCF-7 tumor cell line. The data set is classed as cell-based. The method, then: as §1
Another data set deals with SKOV-3. Nature of the data set: Antitumor cytotoxicity (ED50), SKOV-3. It counts as cell-based. The conditions noted are these: SKOV-3 tumor cell line. Here is the method:
as §1

Data set [1] in a line: Aqueous solubility of paclitaxel (intrinsic, clinical vehicle, hydrotropic agents). The source says: The molecular structures of these hydrotropic agents are shown below.
For data set [2] the following is noted: 50:50 mixture of Cremophore EL and dehydrated ethanol, diluted in isotonic saline; cited from earlier work.

For `COc1cccc2c1C(=O)c1c(O)c3c(c(O)c1C2=O)C[C@@](O)(C(=O)CO)C[C@@H]3O[C@H]1C[C@H](N)[C@H](O)[C@H](C)O1` [Doxorubicin], the “ED50 HT-29” value in the data set with HT-29 was determined as 0.044 µg/mL (≈ 0.081 µM). Besides, in the data set with MDA231, the “ED50 MDA231” value was found to be 0.050 µg/mL (≈ 0.092 µM). Moreover, in the data set with MCF-7, the “ED50 MCF-7” value amounted to 0.773 µg/mL (≈ 1.42 µM). Moreover, the “ED50 SKOV-3” value with SKOV-3 was 0.611 µg/mL (≈ 1.12 µM).
For the molecule `CC(=O)O[C@H]1C(=O)[C@@]2(C)[C@H]([C@H](OC(=O)c3ccccc3)[C@]3(O)C[C@H](OC(=O)[C@H](O)[C@@H](NC(=O)c4ccccc4)c4ccccc4)C(C)=C1C3(C)C)[C@]1(OC(C)=O)CO[C@@H]1C[C@@H]2O` [Paclitaxel, paclitaxel], the “increase in aqueous solubility over the intrinsic solubility” value in data set [1] is recorded as 5˜6 orders of magnitude. Besides, the “ED50 HT-29” value with HT-29 came to 0.003 µg/mL (≈ 0.00351 µM). In addition, in the data set with MDA231, the “ED50 MDA231” value stood at 0.033 µg/mL (≈ 0.0386 µM). Besides, in the data set on MCF-7, the “ED50 MCF-7” value was determined as 0.043 µg/mL (≈ 0.0504 µM). In addition, the “ED50 SKOV-3” value in the data set with SKOV-3 worked out at 0.006 µg/mL (≈ 0.00703 µM). In data set [2], the “paclitaxel solubility in formulation” value is no more than 1200 µg/mL.
For `O=C([O-])c1ccccc1O.[Na+]` [sodium salicylate, Sodium salicylate], the “hydrotropic property for paclitaxel (ability to increase aqueous paclitaxel solubility)” value in data set [1] (hydrotrope screening, in words) was “excellent hydrotropes for paclitaxel”.
